# Reference: US7723058B2, “Test system for the determination of in-vivo active hemostasis proteases in biological fluids and/or the usage thereof to determine the in-vivo activation of hemostasis” (priority 2001, dated 2010)
# Where a SMILES comes first, the peptide text is derived from it. [ ]: non-standard residue; d: D form. The star is where a group is joined. dChg = N[C@@H](C(=O)O)C1CCCCC1; pNA = O=[N+]([O-])c1ccc(N*)cc1
# Columns and labels:
# Format in all cases: biochemical
# normal plasma (citrated) = test: Optimization of the test concentration of contact phase activator in the CPC
# Experimental: To optimize the contact phase activator in the CPC 100 μl • a) Neothromtin® (0.6 g/l ellagic acid (3 ml vial Dade Behring in 1.5 ml H2O) • b) Pathromtin® (5 g/l Kaolin, Dade Behring) • c) Pathromtin SL® (SiO2, Dade Behring) in 1:1, 1:2, 1:4, 1:8, 1:16, 1:32, 1:64, 1:128 dilution with H2O or for control 100 μl H2O were incubated with 100 μl 1.5 mmol/l HD-CHG-Ala-Arg-pNA in PBS and with 100 μl normal plasma (citrated) for 4 min (RT). The increase In extinction (405 nm)/4 min was determined.
# Control Plasma N® (CPN) = test: Comparison of different CPC-approaches; details: CPN; approaches B) and C)
# Experimental: For n=22 citrated plasmas of patients and the Control Plasma N® (CPN) the following CPC-approaches were performed, 2-step-approaches A, B, C and 1-step-approaches D, E, F. • A) 50 μl Plasma+25 μl Pathromtin SL® (SiO2) • B) 50 μl Plasma+25 μl Pathromtin® (kaolin, in H2O twofold diluted) • C) 50 μl Plasma+25 μl Neothromtin® (ellagic acid)
# 3 min RT time of activation; +25 μl 1.7 mM HD-CHG-Ala-Arg-pNA, 750 mM arginine, 6.4 g/l EDTA, pH 8.7 • D) 50 μl Plasma+25 μl 1.7 mM CH3SO2-D-CHG-Gly-Arg-pNA • E) 50 μl Plasma+13 μl 1.5 M arginine, pH 8.7, +50 μl 1.7 mM CH3SO2-D-CHG-Gly-Arg-pNA • F) 50 μl Plasma+25 μl 1.7 mM HD-CHG-Ala-Arg-pNA in H2O+25 μl Pathromtin SL®
# Determination of delta A at 405 nm (RT). The respective changes in extinction were correlated with each other. Result: Pathromtin SL®-2-step-CPC correlated with Pathromtin SL®-1-step-CPC with r=0.798 (delta A/13 min (RT) for CPN in 2-step-CPC=354 mA; delta A/2 min (RT) for CPN-547 mA, i.e. in the 1-step-CPC a […] higher Thrombin-Like Activity is generated compared with the 2-step-CPC; the corresponding values for approaches B) and C) are approx. 30% or 20% lower, respectively. […] Thus, even in arginine-stabilized plasma the amidolytic activity against CH3SO2-D-CHG-Gly-Arg-pNA can reliably be determined, what is valid for chromogenic substrates with a CH3SO2-group.
# normal plasma = test: Inhibition of the 1-step CPC by arginine; details: plasmatic concentrations of arginine above 100 mM
# Experimental: The CPC-test was performed in the 1-step mode as follows: 100 μl normal plasma, containing increasing concentrations of arginine (0-300 mM), pH 8.7 were incubated with 50 μl 1.7 mM HD-CHG-Ala-Arg-pNA in aqua dest. and 50 μl Pathromtin SL®, The increase in absorbance/t (t=0-10 min RT) was determined. Result: at plasmatic concentrations of arginine above 100 mM the Pathromtin SL®-CPC is decreased to 0% (compared to a normal plasma without arginine=100%),
# [1] = tested on: normal EDTA-Plasma supplemented with bovine thrombin (pathoplasma); test: GACA, optimization of the concentration of substrate, pathoplasma
# Experimental: Before and after the incubation the extinction at 405 nm was determined.
# The ratio of the extinctions of pathoplasma and normal plasma approximates the value of 1 at final substrate concentrations >1.5 mM. The higher this value the more specific is the assays for pathologic activation of hemostasis, here imitated by addition of 120 mlU/ml bovine thrombin. This ratio reaches maximal values at final substrate concentrations ≦1 mM. However, the maximal change in extinction decreases at low substrate concentrations, especially at substrate concentrations below 0.3 mM, i.e. substrate exhaustion occurs. Therefore the final substrate concentration in the GACA should be between 0.3 mM and 1.0 mM, preferentially between 0.5 mM and 0.8 mM, particularly at 0.56 mM. At this final substrate concentration the assay is very specific for activation of hemostasis, and consequently the determination of CPC (approach B) can be neglected where appropriate. Thus, the GACA-value corresponds to the uGACA-value at a final substrate concentration of up to 0.8 mM, i.e. GACA=approach A (without correction is by approach B). After addition of thrombin to EDTA-plasma 90% of thrombin is inactivated, in the GACA only 10% of the added enzyme activity can be detected.
# [2] = Standardization of GACA with a pure enzyme-reagent / FEIBA; details: pure enzyme in 500 mM arginine, 2% Hämaccel, 0.1% Triton X 100
# Experimental: The GACA was performed with 100 μl pure bovine thrombin (0-18 mlU/ml; DadeBehring), pure bovine Factor Xa (0-150 pkat/ml) or a Factor-Eight-Inhibitor-Bypassing-Activity-concentrate (0-2.6 units/ml; FEIBA®, Immuno, Wien) in 500 mM arginine, 2% Hämaccel®, 0.1% Triton X 100® (substrate here=HD-CHG-Ala-Arg-pNA. Additional samples were Control Plasma N® (CPN, DadeBehring) or CPN supplemented with FEIBA (0-2.6 units/ml). The incubation was varied from 0 to 4 h. The respective change in extinction was measured. Result: There appears a linear relationship between the thrombin- or factor Xa-concentration used and the resulting change in extinction, and also between incubation time and change in extinction. 6 mlU/ml IIa or 45 pkat/ml Xa result in a change in extinction, that corresponds to that of normal plasma (100% GACA). Thus, the GACA can be calibrated and standardized with pure thrombin- or factor Xa-reagent. CPN with 2.6 units/ml FEIBA has a GACA-value of approx. 200%, i.e. this addition of FEIBA to CPN increases the GACA-value from 100% to […].
# bovine thrombin = molecular target: T1, bovine thrombin (Bos taurus, UniProt P00735); test: Determination of the Km-value for thrombin in plasma; details: thrombin in plasma after addition of 120 mlU/ml thrombin; 37° C.; read-out: substrate concentration at halfmaximal velocity (Km-value)
# T1 construct: activity of thrombin in plasma after addition of 120 mlU/ml thrombin (F IIa); purchased DadeBehring
# Experimental: 1. Normal EDTA-plasma with 250 mM arginine, pH 8.7, and 2. normal EDTA-plasma, supplemented with 120 mlU/ml bovine thrombin and 30 min thereafter with 250 mM arginine, pH 8.7, were incubated with 50 μl HD-CHG-Ala-Arg-pNA (0-6.67 mM final) in aqua dest, Delta A/3 h (37° C.) was measured and the value of 1. was subtracted from the value of 2. The resulting difference corresponds to the activity of thrombin in plasma after addition of 120 mlU/ml thrombin (F IIa). Result the maximal enzyme velocity is 800 mA/3 h the substrate concentration at halfmaximal velocity (Km-value) is 0.3 mM.
# CPN = test: Aprotinin titration in CPN; details: 50 min 37° C.
# Experimental: (§1) 25 μl plasma of a pancreatitis-patient (citrated), 25 μl CPN, 25 μl 36 pkat/ml bovine Factor Xa in PBS, 0.1% Triton X 100®, were incubated with 25 μl assay buffer, containing 600 mM NaHCO3, ph 8.7 with and without 600 mM arginine, 25 μl 25 mM chloramines T®, 25 μl 3 mM N-α-Z-D-Arg-Gly-Arg-pNA 2HCl (S-2765®; Chromogenix, Mölndal, Sweden) and 25 μl Aprotinin (0, 2, 20, 200, 2000, 20000 KIU/ml) for 50 min at 37° C. and the increase in extinction at 405 nm during this incubation time was determined with a microtiterplate-photometer.
# active trypsin = test: Detection of active trypsin in plasma, aprotinin titration, pancreatitis plasma; details: 50 min 37° C.
# Experimental: as §1
# bovine Factor Xa = molecular target: T2, bovine Factor Xa (Bos taurus, UniProt P00743); test: Aprotinin on pure factor Xa; details: 36 pkat/ml bovine Factor Xa; substrate S-2765
# T2 construct: 25 μl 36 pkat/ml bovine Factor Xa in PBS
# T2 sequence (P00743 234-492 limits assumed): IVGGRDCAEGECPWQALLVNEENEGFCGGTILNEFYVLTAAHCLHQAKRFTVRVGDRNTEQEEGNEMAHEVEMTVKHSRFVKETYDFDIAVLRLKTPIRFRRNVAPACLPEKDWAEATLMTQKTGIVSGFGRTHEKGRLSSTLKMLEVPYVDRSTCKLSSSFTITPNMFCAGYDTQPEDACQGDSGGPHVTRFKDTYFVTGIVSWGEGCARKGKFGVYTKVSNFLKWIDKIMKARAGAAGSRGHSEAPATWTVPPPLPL
# T2 sequence (P00743 41-180 partner limits assumed): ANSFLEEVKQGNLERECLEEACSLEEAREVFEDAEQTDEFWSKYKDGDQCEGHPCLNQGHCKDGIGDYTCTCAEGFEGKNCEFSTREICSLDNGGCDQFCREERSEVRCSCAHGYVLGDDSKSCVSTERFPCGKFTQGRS
# Experimental: as §1, with “[…],” for “25 μl plasma of a pancreatitis-patient (citrated), 25 μl CPN, 25 μl 36 pkat/ml bovine Factor Xa in PBS,”
# [3] = 25 μl 2 KIU/ml, absence of arginine
# [4] = 25 μl 2 KIU/ml, presence of arginine
# [5] = 25 μl 20 KIU/ml, absence of arginine
# [6] = 25 μl 20 KIU/ml, presence of arginine
# [7] = 25 μl 200 KIU/ml, absence of arginine
# [8] = 25 μl 200 KIU/ml, presence of arginine
# [9] = 25 μl 2000 KIU/ml, absence of arginine
# [10] = 25 μl 2000 KIU/ml, presence of arginine
# [11] = 25 μl 20000 KIU/ml, absence of arginine
# [12] = 25 μl 20000 KIU/ml, presence of arginine
compound,measurement,setting,value
O=c1oc2c(O)c(O)cc3c(=O)oc4c(O)c(O)cc1c4c23 [ellagic acid],test concentration at optimal activity of protease,"normal plasma (citrated); CPC, 4 min RT",0.05 g/L
same,delta A,"normal plasma (citrated); at optimal test concentration of contact phase activator, 405 nm, RT",1443 mA/4 min
same,2-step-CPC value lower than with Pathromtin SL®,Control Plasma N® (CPN),~20%
N=C(N)NCCC[C@H](N)C(=O)O [arginine],Pathromtin SL®-CPC compared to a normal plasma without arginine=100%,normal plasma,0%
thrombin: pure bovine thrombin (DadeBehring),thrombin inactivated after addition to EDTA-plasma,[1],90%
same,added enzyme activity that can be detected in the GACA,[1]; after addition of thrombin to EDTA-plasma,10%
same,concentration giving a change in extinction that corresponds to normal plasma (100% GACA),[2],6 mlU/ml
"C[C@H](NC(=O)[C@H](N)C1CCCCC1)C(=O)N[C@@H](CCCNC(=N)N)C(=O)Nc1ccc([N+](=O)[O-])cc1 [HD-CHG-Ala-Arg-pNA, HD-CHG-Ala-Arg-pNA.2AcOH] (H-[dChg]-Ala-Arg-pNA)",Km,bovine thrombin,300 µM
aprotinin,increase in extinction in the CPN,CPN; [3],134 mA
same,increase in extinction in the CPN,CPN; [4],133 mA
same,increase in extinction in the CPN,CPN; [5],135 mA
same,increase in extinction in the CPN,CPN; [6],126 mA
same,increase in extinction in the CPN,CPN; [7],108 mA
same,increase in extinction in the CPN,CPN; [8],126 mA
same,increase in extinction in the CPN,CPN; [9],118 mA
same,increase in extinction in the CPN,CPN; [10],125 mA
same,increase in extinction in the CPN,CPN; [11],124 mA
same,increase in extinction in the CPN,CPN; [12],123 mA
same,increase of extinction,active trypsin; [3],733 mA
same,increase of extinction,active trypsin; [4],778 mA
same,increase of extinction,active trypsin; [5],715 mA
same,increase of extinction,active trypsin; [6],709 mA
same,increase of extinction,active trypsin; [7],531 mA
same,increase of extinction,active trypsin; [8],685 mA
same,increase of extinction,active trypsin; [9],294 mA
same,increase of extinction,active trypsin; [10],497 mA
same,increase of extinction,active trypsin; [11],103 mA
same,increase of extinction,active trypsin; [12],259 mA
same,inhibition of pure factor Xa,bovine Factor Xa,not inhibited
